Test results from ChEMBL document CHEMBL1125223, “Synthesis and antibacterial activities of C-21 functionalized derivatives of (9R)-9-amino-9-deoxoerythromycins A and B” (1991).
In brackets after ≈: the same amount, converted by molar mass.

How the values were obtained:
Type in all cases: functional
[1] = tested on: Staphylococcus aureus; assay: Concentration required to inhibit 45 stain Staphylococcus aureus 45 by standard agar dilution method.
[2] = tested on: Pseudomonas aeruginosa; assay: Concentration required to inhibit Pseudomonas aeruginosa K799/61 stain by standard agar dilution method.
[3] = tested on: Escherichia coli; assay: Concentration required to inhibit Escherichia coli DC-2 stain by standard agar dilution method.
[4] = tested on: Micrococcus luteus; assay: Concentration required to inhibit Micrococcus luteus ATCC 4698 stain by standard agar dilution method.
[5] = tested on: Pseudomonas aeruginosa; assay: Concentration required to inhibit Pseudomonas aeruginosa K799/WT stain by standard agar dilution method.
[6] = tested on: Streptococcus pyogenes; assay: Concentration required to inhibit Streptococcus pyogenes 2548 INDUC stain by standard agar dilution method.
[7] = tested on: Staphylococcus aureus; assay: Concentration required to inhibit CMX553 Staphylococcus aureus CMX553 stain by standard agar dilution method
[8] = tested on: Staphylococcus aureus; assay: Concentration required to inhibit Staphylococcus aureus ATCC 6538P stain by standard agar dilution method
[9] = tested on: Staphylococcus epidermidis; assay: Concentration required to inhibit Staphylococcus epidermis 3519 stain by standard agar dilution method.
[10] = tested on: Streptococcus pyogenes; assay: Concentration required to inhibit Streptococcus pyogenes 930CONST stain by standard agar dilution method.
[11] = tested on: Escherichia coli; assay: Concentration required to inhibit Escherichia coli JUHL stain by standard agar dilution method.
[12] = tested on: Micrococcus luteus; assay: Concentration required to inhibit Micrococcus luteus ATCC 9341 stain by standard agar dilution method.
[13] = tested on: Acinetobacter calcoaceticus; assay: Concentration required to inhibit Acinetobacter calcoaceticus CMX669 stain by standard agar dilution method.
[14] = tested on: Escherichia coli; assay: Concentration required to inhibit Escherichia coli KNK 437 stain by standard agar dilution method.
[15] = tested on: Klebsiella aerogenes; assay: Concentration required to inhibit Enterobacter aerogenes ATCC 13048 stain by standard agar dilution method.
[16] = tested on: Enterococcus faecium; assay: Concentration required to inhibit Enterococcus faecium ATCC 8043 stain by standard agar dilution method.
[17] = tested on: Escherichia coli; assay: Concentration required to inhibit Escherichia coli H 560 stain by standard agar dilution method.
[18] = tested on: Burkholderia cepacia; assay: Concentration required to inhibit Pseudomonas cepacia 2961 stain by standard agar dilution method.
[19] = tested on: Klebsiella pneumoniae; assay: Concentration required to inhibit Klebsiella pneumoniae ATCC 8045 stain by standard agar dilution method.
[20] = tested on: Streptococcus equinus; assay: Concentration required to inhibit Streptococcus bovis A5169 stain by standard agar dilution method.
[21] = tested on: Streptococcus pyogenes; assay: Concentration required to inhibit Streptococcus pyogenes EES61 stain by standard agar dilution method.
[22] = tested on: Escherichia coli; assay: Concentration required to inhibit Escherichia coli SS stain by standard agar dilution method.
[23] = tested on: Streptococcus agalactiae; assay: Concentration required to inhibit Streptococcus agalactiae CMX508 stain by standard agar dilution method.

Row | SMILES | MIC [1] [µg/mL] | MIC [2] [µg/mL] | MIC [3] [µg/mL] | MIC [4] [µg/mL] | MIC [5] [µg/mL] | MIC [6] [µg/mL] | MIC [7] [µg/mL] | MIC [8] [µg/mL] | MIC [9] [µg/mL] | MIC [10] [µg/mL] | MIC [11] [µg/mL] | MIC [12] [µg/mL] | MIC [13] [µg/mL] | MIC [14] [µg/mL] | MIC [15] [µg/mL] | MIC [16] [µg/mL] | MIC [17] [µg/mL] | MIC [18] [µg/mL] | MIC [19] [µg/mL] | MIC [20] [µg/mL] | other results
1 | CC[C@H]1OC(=O)[C@H](C)[C@@H](O[C@H]2C[C@@](C)(OC)[C@@H](O)[C@H](C)O2)[C@H](C)[C@@H](O[C@@H]2O[C@H](C)C[C@H](N(C)C)[C@H]2O)[C@@](C)(O)C[C@@H](C)[C@@H](N(C)C)[C@H](C)[C@@H](O)[C@@]1(O)CO | 25 (≈ 32.1 µM) | 50 (≈ 64.2 µM) | 50 (≈ 64.2 µM) | 3.1 (≈ 3.98 µM) | > 100 | 100 (≈ 128 µM) | 25 (≈ 32.1 µM) | 25 (≈ 32.1 µM) | 25 (≈ 32.1 µM) | > 100 | > 100 | 6.2 (≈ 7.96 µM) | > 100 | > 100 | > 100 | 12.5 (≈ 16 µM) | 25 (≈ 32.1 µM) | > 100 | > 100 | 3.1 (≈ 3.98 µM) | MIC [21]: 1.56 µg/mL (≈ 2 µM); MIC [22]: 1.56 µg/mL (≈ 2 µM); MIC [23]: 3.1 µg/mL (≈ 3.98 µM)
2 | CC[C@H]1OC(=O)[C@H](C)[C@@H](O[C@H]2C[C@@](C)(OC)[C@@H](O)[C@H](C)O2)[C@H](C)[C@@H](O[C@H]2O[C@H](C)C[C@H](N(C)C)[C@H]2O)[C@@](C)(O)C[C@@H](C)[C@@H](N(C)C)[C@H](C)[C@@H](O)[C@@]12CO2 | 0.78 (≈ 1.02 µM) | 12.5 (≈ 16.4 µM) | 50 (≈ 65.7 µM) | 0.1 (≈ 0.131 µM) | > 100 | 6.2 (≈ 8.15 µM) | 0.78 (≈ 1.02 µM) | 0.78 (≈ 1.02 µM) | 0.39 (≈ 0.512 µM) | > 100 | 100 (≈ 131 µM) | 0.1 (≈ 0.131 µM) | 12.5 (≈ 16.4 µM) | 100 (≈ 131 µM) | > 100 | 0.02 (≈ 0.0263 µM) | 25 (≈ 32.9 µM) | > 100 | 100 (≈ 131 µM) | 0.02 (≈ 0.0263 µM) | MIC [21]: 0.05 µg/mL (≈ 0.0657 µM); MIC [22]: 0.39 µg/mL (≈ 0.512 µM); MIC [23]: 0.05 µg/mL (≈ 0.0657 µM)
3 | CC[C@H]1OC(=O)[C@H](C)[C@@H](O[C@H]2C[C@@](C)(OC)[C@@H](O)[C@H](C)O2)[C@H](C)[C@@H](O[C@@H]2O[C@H](C)C[C@H](N(C)C)[C@H]2O)[C@@](C)(O)C[C@@H](C)[C@@H](N(C)C)[C@H](C)[C@@H](O)[C@H]1CO | 6.2 (≈ 8.13 µM) | 1.56 (≈ 2.04 µM) | 50 (≈ 65.5 µM) | 0.78 (≈ 1.02 µM) | 50 (≈ 65.5 µM) | 50 (≈ 65.5 µM) | 6.2 (≈ 8.13 µM) | 6.2 (≈ 8.13 µM) | 6.2 (≈ 8.13 µM) | > 100 | > 100 | 0.78 (≈ 1.02 µM) | 3.1 (≈ 4.06 µM) | 100 (≈ 131 µM) | 100 (≈ 131 µM) | 1.56 (≈ 2.04 µM) | 25 (≈ 32.8 µM) | 100 (≈ 131 µM) | 50 (≈ 65.5 µM) | 0.78 (≈ 1.02 µM) | MIC [21]: 0.39 µg/mL (≈ 0.511 µM); MIC [22]: 0.39 µg/mL (≈ 0.511 µM); MIC [23]: 0.78 µg/mL (≈ 1.02 µM)
4 | CC[C@H]1OC(=O)[C@H](C)[C@@H](O[C@H]2C[C@@](C)(OC)[C@@H](O)[C@H](C)O2)[C@H](C)[C@@H](O[C@@H]2O[C@H](C)C[C@H](N(C)C)[C@H]2O)[C@@](C)(O)C[C@@H](C)[C@@H](N(C)C)[C@H](C)[C@@H](O)[C@]1(C)O | 0.78 (≈ 1.02 µM) | 12.5 (≈ 16.4 µM) | 25 (≈ 32.8 µM) | 0.1 (≈ 0.131 µM) | > 100 | 100 (≈ 131 µM) | 0.78 (≈ 1.02 µM) | 0.39 (≈ 0.511 µM) | 0.39 (≈ 0.511 µM) | > 100 | 50 (≈ 65.5 µM) | 0.1 (≈ 0.131 µM) | 12.5 (≈ 16.4 µM) | 50 (≈ 65.5 µM) | 50 (≈ 65.5 µM) | 0.2 (≈ 0.262 µM) | 12.5 (≈ 16.4 µM) | > 100 | 25 (≈ 32.8 µM) | 0.1 (≈ 0.131 µM) | MIC [21]: 0.05 µg/mL (≈ 0.0655 µM); MIC [22]: 0.1 µg/mL (≈ 0.131 µM); MIC [23]: 0.1 µg/mL (≈ 0.131 µM)
